Measurements: US20240252581A1, “COMPOSITIONS AND METHODS FOR TREATING RESPIRATORY DISTRESS” (S.I.S. SHULOV INNOVATIVE SCIENCE LTD., priority 2021, published 2024)
Where “and” joins values, the source holds several entries; their conditions need not be identical. Identical values can stand only once. Entries after “also recorded” stand apart in the source; their conditions may differ. Square brackets hold non-standard residues; d marks the D form. Peptide text beside a SMILES is read from it. * marks the point of attachment. pGlu = O=C1CC[C@@H](C(=O)O)N1; Octanoyl = CCCCCCCC(=O)*

Assays:
[1] = Oxygen saturation in mouse model of LPS-inflamed lungs (Rodent Pulse Oximeter); format: in vivo, Balb/C female mice; details: for Oxygen saturation, group mean: mean of 10 mice; for Oxygen saturation, individual mouse: single animals
Protocol: Evaluation of the effect of ZEP3Na administration via inhalation on oxygen saturation in a mouse model of inflamed lungs by the lipopolysaccharides (LPS) was performed. Oxygen saturation testing was performed at several time points on mice that have been anesthetized by isoflurane. A sensor was attached to the hind foot of the mice and the percentage of oxygen in the blood was measured using the Rodent Pulse Oximeter instrument (Kent Scientific).
Following LPS intratracheal instillation, a marked reduction in blood oxygen saturation levels was detected. ZEP3Na was then administered by inhalation at two doses 6 h and 14 h after LPS administration and the effect of ZEP3Na on blood oxygen saturation was monitored 0, 2, 6, 12, 24 and 48 hours following ZEP3Na administration. Saturation data was analyzed by ANOVA followed by Tukey-Kramer test. Significance level was defined as ∝=0.05.

[2] = test system: B cells, T cells, eosinophils, neutrophils, macrophages/dendritic cells in BALF; test: LPS-induced acute lung injury / ARDS mouse model: BALF differential cell count by FACS; format: in vivo, BALB/c mice; details: for B cells (%) / Eosinophils (%) / Macrophages & dendritic cells (%) / Neutrophils (%) / T cells (%): no LPS, BALF
Protocol: In order to test the efficacy of ZEP3 sodium on lung inflammation, the lipopolysaccharide (LPS)-induced acute lung injury model was used. In particular, LPS was administered intratracheally at doses of 10 or 40 mg/kg body weight (BW) corresponding to 0.2 or 0.8 mg/mouse, respectively.
ZEP3 sodium was administered by inhalation (INH) at doses of 25 or 250 mg/kg BW (0.5 or 5 mg/mouse, respectively), or intratracheally (IT) at doses of 5 or 20 mg/kg BW (0.1 or 0.4 mg/mouse, respectively) 6 hours after LPS administration and its effect was measured 72 hours following administration in the branchial alveolar fluid (BALF) using FACS instrumentation. […]

[3] = Group 2: LPS 800 μg + ZEP3Na 10 mg by inhalation at 6 h, time point 0 h
[4] = Group 2: LPS 800 μg + ZEP3Na 10 mg by inhalation at 6 h, time point 2 h
[5] = Group 2: LPS 800 μg + ZEP3Na 10 mg by inhalation at 6 h, time point 6 h
[6] = Group 2: LPS 800 μg + ZEP3Na 10 mg by inhalation at 6 h, time point 12 h
[7] = Group 2: LPS 800 μg + ZEP3Na 10 mg by inhalation at 6 h, time point 24 h
[8] = Group 2: LPS 800 μg + ZEP3Na 10 mg by inhalation at 6 h, time point 48 h
[9] = Group 3: LPS 800 μg + ZEP3Na 10 mg by inhalation at 6 h + 14 h, time point 0 h
[10] = Group 3: LPS 800 μg + ZEP3Na 10 mg by inhalation at 6 h + 14 h, time point 2 h
[11] = Group 3: LPS 800 μg + ZEP3Na 10 mg by inhalation at 6 h + 14 h, time point 6 h
[12] = Group 3: LPS 800 μg + ZEP3Na 10 mg by inhalation at 6 h + 14 h, time point 12 h
[13] = Group 3: LPS 800 μg + ZEP3Na 10 mg by inhalation at 6 h + 14 h, time point 24 h
[14] = Group 3: LPS 800 μg + ZEP3Na 10 mg by inhalation at 6 h + 14 h, time point 48 h
[15] = Group 4: LPS 800 μg + ZEP3Na 50 mg by inhalation at 6 h, time point 0 h
[16] = Group 4: LPS 800 μg + ZEP3Na 50 mg by inhalation at 6 h, time point 2 h
[17] = Group 4: LPS 800 μg + ZEP3Na 50 mg by inhalation at 6 h, time point 6 h
[18] = Group 4: LPS 800 μg + ZEP3Na 50 mg by inhalation at 6 h, time point 12 h
[19] = Group 4: LPS 800 μg + ZEP3Na 50 mg by inhalation at 6 h, time point 24 h
[20] = Group 4: LPS 800 μg + ZEP3Na 50 mg by inhalation at 6 h, time point 48 h
[21] = Group 5: LPS 800 μg + ZEP3Na 50 mg by inhalation at 6 h + 14 h, time point 0 h
[22] = Group 5: LPS 800 μg + ZEP3Na 50 mg by inhalation at 6 h + 14 h, time point 2 h
[23] = Group 5: LPS 800 μg + ZEP3Na 50 mg by inhalation at 6 h + 14 h, time point 6 h
[24] = Group 5: LPS 800 μg + ZEP3Na 50 mg by inhalation at 6 h + 14 h, time point 12 h
[25] = Group 5: LPS 800 μg + ZEP3Na 50 mg by inhalation at 6 h + 14 h, time point 24 h
[26] = Group 5: LPS 800 μg + ZEP3Na 50 mg by inhalation at 6 h + 14 h, time point 48 h
[27] = administration by inhalation, 800 μg LPS
[28] = Group 2: ZEP3Na 0.1 mg IT, group mean
[29] = Group 2: ZEP3Na 0.1 mg IT, individual mice
[30] = Group 3: ZEP3Na 0.4 mg IT, group mean

In the case of `CCCCCCCC(=O)NCCCC[C@H](NC(=O)[C@H](Cc1c[nH]c2ccccc12)NC(=O)[C@H](CC(N)=O)NC(=O)[C@@H]1CCC(=O)N1)C(=O)O` [ZEP3Na, pGlu-Asn-Trp-Lys(Octanoyl)-ONa] ([pGlu]NWK(Octanoyl)-OH), the “Oxygen saturation, group mean” value [1, 3] is reported as 97.2%, the “Oxygen saturation, individual mouse” value [1, 3] is reported as 99% (4×) and 93% and 97% and 98% (2×) and 95% (2×) and the “Oxygen saturation, group mean” value [1, 4] is reported as 70.0%. The “Oxygen saturation, individual mouse” value [1, 4] was 77% and 67% and 78% (2×) and 61% and 71% and 59% and 72% and 74% and 63%, the “Oxygen saturation, group mean” value [1, 5] was 86.2% and the “Oxygen saturation, individual mouse” value [1, 5] was 81% and 88% (2×) and 87% (2×) and 91% and 82% and 84% and 85% and 89%. For the same compound, the “Oxygen saturation, group mean” value [1, 6] was 93.5%, the “Oxygen saturation, individual mouse” value [1, 6] was 92% (2×) and 96% and 95% (2×) and 93% and 90% and 94% (3×) and the “Oxygen saturation, group mean” value [1, 7] was 89.0%. The “Oxygen saturation, individual mouse” value [1, 7] was 86% (2×) and 87% and 89% and 88% and 90% (2×) and 83% and 92% and 99%, the “Oxygen saturation, group mean” value [1, 8] was 92.9% and the “Oxygen saturation, individual mouse” value [1, 8] was 91% (5×) and 94% and 97% (3×) and 89%. For the same compound, the “Oxygen saturation, group mean” value [1, 9] was 96.2%, the “Oxygen saturation, individual mouse” value [1, 9] was 97% (2×) and 96% and 99% (2×) and 94% (2×) and 93% and 95% and 98% and the “Oxygen saturation, group mean” value [1, 10] was 71.1%. For the same compound, the “Oxygen saturation, individual mouse” value [1, 10] was 70% and 68% and 71% (2×) and 80% and 73% and 64% and 75% and 62% and 77%, the “Oxygen saturation, group mean” value [1, 11] was 87.1% and the “Oxygen saturation, individual mouse” value [1, 11] was 86% (2×) and 88% (2×) and 89% (2×) and 92% and 81% and 82% and 90%. The “Oxygen saturation, group mean” value [1, 12] was 92.5%, the “Oxygen saturation, individual mouse” value [1, 12] was 92% (2×) and 90% (2×) and 94% and 97% and 95% and 88% and 91% and 96% and the “Oxygen saturation, group mean” value [1, 13] was 92.1%. For the same compound, the “Oxygen saturation, individual mouse” value [1, 13] was 96% (2×) and 94% and 88% and 86% and 93% (3×) and 92% and 90%, the “Oxygen saturation, group mean” value [1, 14] was 93.0% and the “Oxygen saturation, individual mouse” value [1, 14] was 91% (4×) and 92% (2×) and 97% (2×) and 94% (2×). For the same compound, the “Oxygen saturation, group mean” value [1, 15] was 97.2%, the “Oxygen saturation, individual mouse” value [1, 15] was 95% (3×) and 97% (3×) and 99% (4×) and the “Oxygen saturation, group mean” value [1, 16] was 72.7%. The “Oxygen saturation, individual mouse” value [1, 16] was 69% and 81% and 72% (2×) and 73% and 79% (2×) and 65% and 66% and 71%, the “Oxygen saturation, group mean” value [1, 17] was 86.7% and the “Oxygen saturation, individual mouse” value [1, 17] was 86% (3×) and 90% and 88% (2×) and 87% (2×) and 85% and 84%. For the same compound, the “Oxygen saturation, group mean” value [1, 18] was 94.5%, the “Oxygen saturation, individual mouse” value [1, 18] was 93% and 89% and 94% (3×) and 95% and 96% (3×) and 98% and the “Oxygen saturation, group mean” value [1, 19] was 94.0%. The “Oxygen saturation, individual mouse” value [1, 19] was 93% (2×) and 94% and 95% (2×) and 90% and 99% and 92% (2×) and 97%, the “Oxygen saturation, group mean” value [1, 20] was 97.0% and the “Oxygen saturation, individual mouse” value [1, 20] was 93% and 95% and 98% (5×) and 99% and 97% and 96%. The “Oxygen saturation, group mean” value [1, 21] was 96.6%, the “Oxygen saturation, individual mouse” value [1, 21] was 97% (3×) and 94% (2×) and 96% and 99% (2×) and 98% and 95% and the “Oxygen saturation, group mean” value [1, 22] was 71.8%. The “Oxygen saturation, individual mouse” value [1, 22] was 63% and 71% and 69% and 92% and 73% and 75% and 72% and 76% and 66% and 61%, the “Oxygen saturation, group mean” value [1, 23] was 86.8% and the “Oxygen saturation, individual mouse” value [1, 23] was 88% (2×) and 90% and 84% and 89% and 86% (2×) and 85% (2×) and 87%. For the same compound, the “Oxygen saturation, group mean” value [1, 24] was 94.0%, the “Oxygen saturation, individual mouse” value [1, 24] was 92% and 94% (3×) and 90% and 93% and 95% (2×) and 96% and 97% and the “Oxygen saturation, group mean” value [1, 25] was 93.8%. The “Oxygen saturation, individual mouse” value [1, 25] was 90% and 91% (3×) and 93% (2×) and 98% (2×) and 99% and 94%, the “Oxygen saturation, group mean” value [1, 26] was 97.1% and the “Oxygen saturation, individual mouse” value [1, 26] was 99% (3×) and 97% (3×) and 91% and 98% (2×) and 96%. For the same compound, the “elevation in oxygen saturation levels as compared to LPS with no treatment” value [1, 27] was ≤ 20%, the “oxygen saturation levels that have been reduced by LPS” value [1, 27] was “significantly increased” and the “time following treatment at which increase in oxygen saturation is statistically significant” value ([1]; administration by inhalation, LPS model) was 12 h. The animal weight ([1]; throughout the experiment) was “substantially constant”, the bronchoalveolar eosinophils percentage ([2]; 0.2 mg LPS, ZEP3Na 0.1 and 0.4 mg, compared to untreated mice that received 0.2 mg LPS) was “significant decrease; also recorded: significantly inhibited” and the “B cells (%)” value [2, 28] was 0.163%. The “Eosinophils (%)” value [2, 28] was 0.412%, the “Macrophages & dendritic cells (%)” value [2, 28] was 66.715% and the “Neutrophils (%)” value [2, 28] was 6.816%. The “T cells (%)” value [2, 28] was 3.078%, the “B cells (%)” value [2, 29] was 0.320% and 0.208% and 0.091% and 0.218% and 0.150% and 0.089% and 0.103% and 0.162% and 0.147% and 0.138% and the “Eosinophils (%)” value [2, 29] was 0.192% and 0.556% and 0.185% and 0.196% and 0.692% and 0.058% and 0.261% and 0.828% and 0.606% and 0.546%. The “Macrophages & dendritic cells (%)” value [2, 29] was 69.267% and 65.626% and 66.568% and 65.527% and 65.957% and 70.380% and 68.287% and 64.068% and 65.131% and 66.345%, the “Neutrophils (%)” value [2, 29] was 8.302% and 7.056% and 4.882% and 7.770% and 5.279% and 3.207% and 3.871% and 12.158% and 8.592% and 7.044% and the “T cells (%)” value [2, 29] was 3.447% and 3.524% and 4.627% and 2.747% and 2.636% and 1.788% and 2.856% and 2.681% and 3.118% and 3.354%. For the same compound, the “B cells (%)” value [2, 30] was 0.176% and the “Eosinophils (%)” value [2, 30] was 0.277%.
